Nine molecules from ChEMBL document CHEMBL1201862, “PubChem BioAssay data set” (2004) can be followed below.

For assay [1], the target named is T1, Rac GTPase-activating protein 1 (Homo sapiens, UniProt Q9H0H5).
T1 sequence (Q9H0H5 whole entry): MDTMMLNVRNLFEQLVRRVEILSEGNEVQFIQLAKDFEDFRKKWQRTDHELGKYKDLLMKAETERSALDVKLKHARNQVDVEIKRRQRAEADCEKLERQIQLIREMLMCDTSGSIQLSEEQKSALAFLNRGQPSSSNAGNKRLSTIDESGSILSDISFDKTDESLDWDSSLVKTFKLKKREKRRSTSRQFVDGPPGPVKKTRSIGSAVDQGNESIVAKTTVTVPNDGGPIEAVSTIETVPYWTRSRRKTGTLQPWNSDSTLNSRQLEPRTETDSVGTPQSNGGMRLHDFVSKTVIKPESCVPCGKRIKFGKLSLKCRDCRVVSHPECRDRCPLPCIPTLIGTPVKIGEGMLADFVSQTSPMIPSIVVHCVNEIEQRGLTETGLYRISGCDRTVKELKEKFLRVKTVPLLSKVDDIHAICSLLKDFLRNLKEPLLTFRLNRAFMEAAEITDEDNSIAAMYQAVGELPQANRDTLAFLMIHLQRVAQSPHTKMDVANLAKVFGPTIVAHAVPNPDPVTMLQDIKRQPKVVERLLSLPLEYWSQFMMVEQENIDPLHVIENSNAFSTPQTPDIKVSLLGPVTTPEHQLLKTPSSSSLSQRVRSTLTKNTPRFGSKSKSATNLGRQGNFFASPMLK
Nature of the assay: MgcRacGAP GTPase-activating activity inhibitors, confirmation, biochemical, ADP Hunter fluorescence, primary and confirmatory (AID 624330). The format is functional.

The target in assay [2] is Large T antigen (Simian virus 40, UniProt P03070). In kind it is functional, Betapolyomavirus macacae.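 Note: Confirmatory-stage PubChem screen for compounds that inhibit SV40 T antigen.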
Assay [3] can be described thus: THP-1 cell cytotoxicity, dose response, cytotoxicity control for non-replicating M. tuberculosis project (AID 489025). In kind it is functional.
Assay [4] can be described thus: cells. The format is functional.
The target in assay [5] is T2, Protein RecA (Mycobacterium tuberculosis, UniProt P9WHJ3).
T2 sequence (P9WHJ3 whole entry): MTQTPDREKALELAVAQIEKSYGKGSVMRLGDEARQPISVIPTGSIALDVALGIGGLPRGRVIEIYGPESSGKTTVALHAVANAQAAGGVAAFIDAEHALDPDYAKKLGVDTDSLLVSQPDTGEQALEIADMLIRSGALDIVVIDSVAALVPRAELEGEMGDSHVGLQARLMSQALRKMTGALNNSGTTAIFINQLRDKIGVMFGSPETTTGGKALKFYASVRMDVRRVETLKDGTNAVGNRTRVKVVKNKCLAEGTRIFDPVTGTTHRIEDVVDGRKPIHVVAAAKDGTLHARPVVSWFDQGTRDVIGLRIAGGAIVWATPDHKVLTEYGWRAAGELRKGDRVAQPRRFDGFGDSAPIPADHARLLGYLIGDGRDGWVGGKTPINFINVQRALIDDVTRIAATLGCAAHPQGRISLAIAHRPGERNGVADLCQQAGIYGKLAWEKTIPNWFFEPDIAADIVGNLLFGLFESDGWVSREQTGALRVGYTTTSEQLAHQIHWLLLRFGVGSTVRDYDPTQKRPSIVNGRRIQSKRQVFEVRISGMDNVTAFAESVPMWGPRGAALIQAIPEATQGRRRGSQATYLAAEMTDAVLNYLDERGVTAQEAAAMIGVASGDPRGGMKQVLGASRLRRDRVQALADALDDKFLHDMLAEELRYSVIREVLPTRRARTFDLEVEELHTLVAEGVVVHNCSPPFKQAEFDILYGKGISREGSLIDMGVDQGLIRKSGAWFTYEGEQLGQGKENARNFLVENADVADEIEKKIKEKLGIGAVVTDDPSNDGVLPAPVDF
Nature of the assay: Fluorescence Cell-Free Homogeneous Dose Retest to Identify Inhibitors of RecA-Intein Splicing Activity. [Related pubchem assays (depositor defined):AID2097, AID2223, AID489010, AID492950]. In kind it is functional.

In assay [6] the target is T3, Replicative DNA helicase DnaB (Mycobacterium tuberculosis, UniProt P9WMR3).
T3 sequence (P9WMR3 whole entry): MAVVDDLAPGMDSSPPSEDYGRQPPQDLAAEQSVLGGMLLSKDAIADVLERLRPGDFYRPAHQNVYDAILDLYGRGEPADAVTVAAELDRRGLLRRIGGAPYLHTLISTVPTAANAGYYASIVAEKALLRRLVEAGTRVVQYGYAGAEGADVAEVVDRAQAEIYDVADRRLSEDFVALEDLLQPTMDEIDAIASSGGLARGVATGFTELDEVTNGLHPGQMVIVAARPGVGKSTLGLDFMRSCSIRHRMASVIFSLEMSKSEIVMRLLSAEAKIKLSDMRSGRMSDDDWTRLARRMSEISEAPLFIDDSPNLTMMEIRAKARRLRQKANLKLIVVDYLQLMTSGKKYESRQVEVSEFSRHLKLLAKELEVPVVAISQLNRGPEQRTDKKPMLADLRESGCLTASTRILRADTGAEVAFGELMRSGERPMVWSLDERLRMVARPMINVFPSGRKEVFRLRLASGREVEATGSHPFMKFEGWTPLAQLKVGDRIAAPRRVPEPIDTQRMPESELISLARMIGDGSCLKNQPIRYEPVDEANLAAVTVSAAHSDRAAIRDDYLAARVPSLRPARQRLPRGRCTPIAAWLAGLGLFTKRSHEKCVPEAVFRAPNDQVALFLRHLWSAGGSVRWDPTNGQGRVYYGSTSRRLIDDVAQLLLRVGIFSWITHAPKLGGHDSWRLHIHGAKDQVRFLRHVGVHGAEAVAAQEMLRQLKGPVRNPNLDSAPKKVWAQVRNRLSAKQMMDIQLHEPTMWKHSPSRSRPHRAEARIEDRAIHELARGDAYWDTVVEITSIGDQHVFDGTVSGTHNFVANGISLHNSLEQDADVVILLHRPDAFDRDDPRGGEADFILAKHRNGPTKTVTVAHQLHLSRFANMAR
Nature of the assay: DnaB intein splicing inhibitors, dose response, biochemical, cell-free fluorescence (AID 449749). The format is functional.

Assay [7] has as its target T4, Leucine aminopeptidase (Plasmodium falciparum 3D7, UniProt Q8IL11).
T4 sequence (Q8IL11 whole entry): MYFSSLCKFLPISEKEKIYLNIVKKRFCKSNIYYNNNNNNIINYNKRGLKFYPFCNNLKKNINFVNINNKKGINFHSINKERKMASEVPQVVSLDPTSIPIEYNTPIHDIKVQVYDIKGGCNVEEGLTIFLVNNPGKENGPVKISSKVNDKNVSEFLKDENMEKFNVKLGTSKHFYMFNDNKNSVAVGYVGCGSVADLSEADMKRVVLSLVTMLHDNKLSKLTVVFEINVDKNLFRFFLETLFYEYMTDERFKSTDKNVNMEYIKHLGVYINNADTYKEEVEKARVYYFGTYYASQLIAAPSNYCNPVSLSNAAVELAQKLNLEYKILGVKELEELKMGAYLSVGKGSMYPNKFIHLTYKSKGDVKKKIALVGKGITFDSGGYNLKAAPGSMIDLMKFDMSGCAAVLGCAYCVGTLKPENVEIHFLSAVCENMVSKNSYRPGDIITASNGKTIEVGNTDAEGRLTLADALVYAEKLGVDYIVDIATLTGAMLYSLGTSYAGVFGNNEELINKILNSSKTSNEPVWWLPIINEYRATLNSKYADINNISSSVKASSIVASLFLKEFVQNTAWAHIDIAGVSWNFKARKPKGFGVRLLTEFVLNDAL
Nature of the assay: P. falciparum M17LAP inhibitors, primary screen, biochemical, fluorogenic H-Leu-NHMec substrate, 1536-well (AID 1619). The format is functional.

Assay [8] in a line: inhibitors of Bluetongue virus cytopathic effect, confirmation, arbovirus, BSR cells (AID 1250).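 Note: protection from viral cytopathic effect measured as cell viability by ATP luminescence.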 In kind it is functional. Background: Damage to the host cells serves as the signal in cytopathic effect assays.
Assay [9] has as its target T5, Aminopeptidase N (Plasmodium falciparum FcB1/Columbia, UniProt O96935).
T5 sequence (O96935 whole entry): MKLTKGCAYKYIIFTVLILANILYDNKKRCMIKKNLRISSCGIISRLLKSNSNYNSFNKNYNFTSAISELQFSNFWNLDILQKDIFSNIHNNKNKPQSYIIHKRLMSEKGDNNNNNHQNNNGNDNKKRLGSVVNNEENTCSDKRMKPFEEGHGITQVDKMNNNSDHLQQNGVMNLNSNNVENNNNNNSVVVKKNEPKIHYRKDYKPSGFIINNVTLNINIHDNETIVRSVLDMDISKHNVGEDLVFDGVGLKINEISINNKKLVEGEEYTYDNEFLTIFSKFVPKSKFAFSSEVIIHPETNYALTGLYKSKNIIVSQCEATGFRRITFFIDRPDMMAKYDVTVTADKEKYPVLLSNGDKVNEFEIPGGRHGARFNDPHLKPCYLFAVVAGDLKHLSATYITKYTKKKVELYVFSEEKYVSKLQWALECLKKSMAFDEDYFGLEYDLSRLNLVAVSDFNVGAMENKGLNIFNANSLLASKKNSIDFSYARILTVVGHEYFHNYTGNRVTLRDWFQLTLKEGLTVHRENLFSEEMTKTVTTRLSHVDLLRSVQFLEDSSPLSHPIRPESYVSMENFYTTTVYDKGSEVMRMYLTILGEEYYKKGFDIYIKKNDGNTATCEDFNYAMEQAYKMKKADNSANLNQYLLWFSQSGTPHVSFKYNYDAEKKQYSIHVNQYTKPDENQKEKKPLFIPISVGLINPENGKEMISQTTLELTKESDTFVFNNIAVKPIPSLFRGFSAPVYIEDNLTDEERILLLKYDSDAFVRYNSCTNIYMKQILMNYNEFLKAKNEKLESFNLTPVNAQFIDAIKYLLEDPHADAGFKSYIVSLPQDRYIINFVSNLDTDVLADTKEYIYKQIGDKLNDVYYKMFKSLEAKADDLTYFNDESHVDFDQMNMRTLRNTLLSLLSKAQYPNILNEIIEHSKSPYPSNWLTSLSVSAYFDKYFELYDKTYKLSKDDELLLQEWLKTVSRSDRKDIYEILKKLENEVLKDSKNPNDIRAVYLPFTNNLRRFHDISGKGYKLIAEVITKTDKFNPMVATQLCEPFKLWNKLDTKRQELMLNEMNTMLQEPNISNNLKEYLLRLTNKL
Nature of the assay: P. falciparum M1AAP inhibitors, biochemical, fluorogenic H-Leu-NHMec substrate, 1536-well (AID 1445). Also on record: species or system Plasmodium falciparum 3D7, 3D7.

Assay [10] in a line: NIH-3T3 fibroblast cytotoxicity, dose response, cytotoxicity control, cell-based, fluorescence, Alamar Blue, secondary assay (AID 2327).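 Note: NIH-3T3 mouse fibroblasts cultured with fluconazole at 8 µg/mL.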 The format is functional. (In general: The colour change of resazurin is a common sign of viable cells or microbes.)
Assay [11] is described as follows: C. albicans growth with fluconazole, confirmation, fluorescence, retest (AID 2467). In kind it is functional, cell-based.
Assay [12] concerns the target Genome polyprotein (dengue virus type 2, UniProt P29990). Nature of the assay: Dengue-2 NS5 methyltransferase inhibitors, primary screen, biochemical, confirmation dose response (AID 588689). The format is functional.
Assay [13] deals with T6, Cytochrome P450 1A2 (Homo sapiens, UniProt P05177).
T6 sequence (P05177 whole entry): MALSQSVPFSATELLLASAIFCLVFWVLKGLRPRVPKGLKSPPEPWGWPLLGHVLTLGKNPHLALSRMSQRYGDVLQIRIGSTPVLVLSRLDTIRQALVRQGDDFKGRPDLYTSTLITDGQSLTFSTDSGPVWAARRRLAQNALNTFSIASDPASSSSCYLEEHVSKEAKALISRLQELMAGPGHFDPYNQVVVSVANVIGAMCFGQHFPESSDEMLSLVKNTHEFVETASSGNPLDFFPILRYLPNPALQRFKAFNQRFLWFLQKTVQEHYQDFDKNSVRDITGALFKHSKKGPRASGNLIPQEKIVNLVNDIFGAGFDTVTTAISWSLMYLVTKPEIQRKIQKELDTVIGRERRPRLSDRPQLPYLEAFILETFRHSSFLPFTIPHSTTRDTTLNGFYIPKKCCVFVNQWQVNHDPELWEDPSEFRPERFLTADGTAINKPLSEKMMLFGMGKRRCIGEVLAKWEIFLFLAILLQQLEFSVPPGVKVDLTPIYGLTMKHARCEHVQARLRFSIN

Assay [14] has as its target Cytochrome P450 2D6 (Homo sapiens, UniProt P10635).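 Note: CYP2D6 member of a cytochrome P450 panel assay.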
Assay [15] addresses DNA dC->dU-editing enzyme APOBEC-3A (Homo sapiens, UniProt P31941). Nature of the assay: Dose Response confirmation of small molecule APOBEC3A DNA Deaminase Inhibitors via a fluorescence-based single-stranded DNA deaminase assay. [Related pubchem assays (depositor defined):AID493011, AID493024]. In kind it is functional.

The source made the active and inactive calls. Some results are limits rather than exact numbers.

Large T antigen, sequence (P03070 whole entry): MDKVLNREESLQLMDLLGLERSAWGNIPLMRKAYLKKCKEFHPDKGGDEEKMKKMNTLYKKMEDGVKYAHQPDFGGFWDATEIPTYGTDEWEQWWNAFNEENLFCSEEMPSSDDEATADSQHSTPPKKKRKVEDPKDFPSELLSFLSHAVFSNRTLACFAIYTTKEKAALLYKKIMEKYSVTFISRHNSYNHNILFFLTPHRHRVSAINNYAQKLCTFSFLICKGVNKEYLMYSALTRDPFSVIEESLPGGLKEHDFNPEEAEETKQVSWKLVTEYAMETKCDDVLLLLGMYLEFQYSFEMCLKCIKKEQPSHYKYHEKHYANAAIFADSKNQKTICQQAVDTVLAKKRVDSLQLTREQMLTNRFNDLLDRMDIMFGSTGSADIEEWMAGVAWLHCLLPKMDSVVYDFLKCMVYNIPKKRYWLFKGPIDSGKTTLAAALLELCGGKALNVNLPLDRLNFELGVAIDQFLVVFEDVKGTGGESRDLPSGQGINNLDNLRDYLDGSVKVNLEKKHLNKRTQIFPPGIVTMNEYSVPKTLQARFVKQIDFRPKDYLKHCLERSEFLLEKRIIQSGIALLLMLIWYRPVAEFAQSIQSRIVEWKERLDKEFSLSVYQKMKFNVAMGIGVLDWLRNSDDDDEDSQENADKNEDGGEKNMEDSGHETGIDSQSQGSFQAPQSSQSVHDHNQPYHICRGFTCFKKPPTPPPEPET
Genome polyprotein, sequence (P29990 2492-3391 limits assumed): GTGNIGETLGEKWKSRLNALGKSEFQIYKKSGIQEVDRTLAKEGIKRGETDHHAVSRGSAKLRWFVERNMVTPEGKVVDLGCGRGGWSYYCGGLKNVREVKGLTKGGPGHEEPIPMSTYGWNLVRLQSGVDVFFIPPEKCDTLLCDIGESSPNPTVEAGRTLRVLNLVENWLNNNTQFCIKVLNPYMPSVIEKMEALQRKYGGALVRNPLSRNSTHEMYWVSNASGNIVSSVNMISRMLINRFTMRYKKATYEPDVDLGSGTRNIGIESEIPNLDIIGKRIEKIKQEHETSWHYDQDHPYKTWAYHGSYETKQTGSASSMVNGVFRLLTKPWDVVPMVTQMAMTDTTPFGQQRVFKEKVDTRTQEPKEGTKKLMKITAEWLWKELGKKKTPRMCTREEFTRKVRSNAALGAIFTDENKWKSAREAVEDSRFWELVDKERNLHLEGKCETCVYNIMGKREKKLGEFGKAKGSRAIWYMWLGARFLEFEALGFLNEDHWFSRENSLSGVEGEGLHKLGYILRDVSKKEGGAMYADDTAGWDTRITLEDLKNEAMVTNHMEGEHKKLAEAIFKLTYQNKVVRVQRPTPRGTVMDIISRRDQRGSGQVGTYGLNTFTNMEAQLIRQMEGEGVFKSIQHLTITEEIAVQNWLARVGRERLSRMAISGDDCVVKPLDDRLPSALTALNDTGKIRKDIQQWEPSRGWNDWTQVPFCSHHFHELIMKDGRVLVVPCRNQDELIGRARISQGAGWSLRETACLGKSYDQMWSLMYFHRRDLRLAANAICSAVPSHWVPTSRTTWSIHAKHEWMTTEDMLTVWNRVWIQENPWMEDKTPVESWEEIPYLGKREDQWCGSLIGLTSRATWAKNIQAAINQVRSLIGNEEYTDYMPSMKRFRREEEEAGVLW
Cytochrome P450 2D6, sequence (P10635 whole entry): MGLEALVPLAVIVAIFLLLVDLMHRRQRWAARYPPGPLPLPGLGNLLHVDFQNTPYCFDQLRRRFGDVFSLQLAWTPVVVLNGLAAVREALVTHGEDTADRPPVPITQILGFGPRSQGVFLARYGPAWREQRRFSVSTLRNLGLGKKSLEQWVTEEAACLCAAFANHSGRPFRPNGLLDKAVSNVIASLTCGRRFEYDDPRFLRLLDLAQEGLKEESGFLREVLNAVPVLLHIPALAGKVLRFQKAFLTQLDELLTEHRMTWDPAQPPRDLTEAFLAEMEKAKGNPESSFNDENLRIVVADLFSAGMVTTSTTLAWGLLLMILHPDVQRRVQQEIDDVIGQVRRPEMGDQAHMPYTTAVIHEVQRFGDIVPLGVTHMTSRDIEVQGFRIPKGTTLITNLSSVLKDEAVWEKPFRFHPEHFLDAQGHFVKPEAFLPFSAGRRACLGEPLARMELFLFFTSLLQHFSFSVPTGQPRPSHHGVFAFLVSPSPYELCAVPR
DNA dC->dU-editing enzyme APOBEC-3A, sequence (P31941 whole entry): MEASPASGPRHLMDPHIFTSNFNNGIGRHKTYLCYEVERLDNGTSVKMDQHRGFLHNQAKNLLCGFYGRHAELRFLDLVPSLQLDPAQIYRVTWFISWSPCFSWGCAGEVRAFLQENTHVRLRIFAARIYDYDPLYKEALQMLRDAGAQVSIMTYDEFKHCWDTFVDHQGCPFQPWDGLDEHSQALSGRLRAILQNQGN

With `CN(C)c1ccc(NC(=O)CN2C(=O)CN=C(c3ccccc3)c3ccccc32)cc1`, the figures for the IC50 in assay [1] and in assay [2] were 72 µM (active) and 11.9 µM (active), respectively.

On to `COC(=O)c1ccccc1Sc1ncnc2onc(C)c12`, for which the CC50 in assay [3] is > 40 µM (active). Also, the IC50 in assay [4] was 10.9 µM (active). Further, the EC50 in assay [5] was 9.04 µM (active). Further, the AC50 in assay [6] is 12.4 µM (active).

As for `O=C1NC(=O)N(Cc2ccccc2)C(=O)/C1=C/NNC(=O)c1ccccc1O`, the figures for the IC50 in assay [7], in assay [8] and in [9] were 62.3 µM (active), 97.4 µM (active) and 17.3 µM (active), respectively.

Take `Cc1nc(N)sc1N=Nc1c(C)n(C)n(-c2ccccc2)c1=O`: the IC50 in assay [2] was 17.3 µM (active).

As for `O=C1NC2(CCC3(CC2)OCCO3)NN1c1ccc(Cl)cc1`, in assay [3], the CC50 was > 40 µM (active). For the same molecule, the EC50 in assay [10] was > 150 µM (inactive); in assay [11] it was 1.64 µM (active).

For `COc1cc(/C=C2\C(=O)NC(=O)N(CCc3ccc(F)cc3)C2=O)ccc1O`, the IC50 in assay [7] is 15.8 µM (active); in assay [2] it was 20 µM (active).

Take `O=C1Nc2ccc(F)cc2C12Nc1ccccc1-c1nnc(SCc3ccccc3F)nc1O2` (stereo unspecified): the IC50 was 30.8 µM (active) in assay [12] and 68.4 µM (active) in assay [9]. For the same molecule, the AC50 in [13] was 10 µM (inconclusive); in assay [14], 14.1 µM (inconclusive).

For `CCC(Oc1ccccc1OC)C(=O)Nc1ccc2c(c1)OCCO2` (stereo unspecified), the IC50 in assay [15] is 6.09 µM (active).

For the molecule `COc1cc(/C=N/Nc2ccnc(O)n2)ccc1O`, in assay [2], the IC50 is 6.16 µM (active).

The IC50 is the concentration needed to halve the response being measured. What is called CC50 is the concentration at which the toxic effect on the cells reaches its halfway point. A word on the EC50: it is the midpoint of the concentration-response curve. By AC50 is commonly meant the midpoint of the concentration-response curve, whichever way the signal moves.
